Results reported in patent US20080287653A1, “METHOD FOR PRODUCING INHIBITORS AND INHIBITORS FORMED THEREFROM” (THE UNIVERSITY OF AKRON, priority 2007, published 2008).
Non-standard residues stand in square brackets, D forms with d. Residues, ends and D or L forms follow the SMILES beside them. Lys(Thioacetyl) = CC(=S)NCCCC[C@H](N)C(=O)O

How the values were obtained:
SIRT1 = target: T1, SIRT1 (Homo sapiens, UniProt Q96EB6); assay: HPLC-based SIRT1 inhibition assay with purified GST-SIRT1; assay type: biochemical
T1 construct: made in house
T1 sequence (Q96EB6 1-747): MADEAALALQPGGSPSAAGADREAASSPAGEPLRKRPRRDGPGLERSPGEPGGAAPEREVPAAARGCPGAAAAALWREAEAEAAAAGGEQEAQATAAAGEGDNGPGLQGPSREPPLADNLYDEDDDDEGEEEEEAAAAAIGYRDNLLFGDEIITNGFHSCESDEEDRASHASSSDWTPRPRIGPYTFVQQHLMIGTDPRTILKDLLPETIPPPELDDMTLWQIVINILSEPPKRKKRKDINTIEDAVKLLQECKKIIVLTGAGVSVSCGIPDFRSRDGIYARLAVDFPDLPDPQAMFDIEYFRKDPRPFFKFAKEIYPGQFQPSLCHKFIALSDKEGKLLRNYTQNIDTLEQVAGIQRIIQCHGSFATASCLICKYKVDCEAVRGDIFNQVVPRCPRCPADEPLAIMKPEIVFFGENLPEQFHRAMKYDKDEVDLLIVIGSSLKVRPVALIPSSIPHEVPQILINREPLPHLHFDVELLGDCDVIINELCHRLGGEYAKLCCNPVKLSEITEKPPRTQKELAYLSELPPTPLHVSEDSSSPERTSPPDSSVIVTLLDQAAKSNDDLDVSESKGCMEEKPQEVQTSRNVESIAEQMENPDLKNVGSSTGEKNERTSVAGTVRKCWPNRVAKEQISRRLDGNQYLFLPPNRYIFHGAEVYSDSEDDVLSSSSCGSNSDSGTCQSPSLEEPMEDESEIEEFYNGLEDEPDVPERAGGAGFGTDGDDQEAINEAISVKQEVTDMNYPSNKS
Procedure: Inhibition assays with purified SIRT1, SIRT2, and SIRT3. GST-SIRT1 that could be produced in a laboratory was used for the SIRT1 inhibition assay. SIRT2 and SIRT3 are obtainable from commercial sources known to those skilled in the art. Consistent HPLC-based assay procedures were used for the inhibition assays with SIRT1, SIRT2, and SIRT3. […] An enzymatic reaction was initiated by the addition of an enzyme at 37° C. and was allowed to be incubated at 37° C.: 10 minutes as follows: for SIRT1 assay, or 60 minutes for SIRT2 and SIRT3 assays. Incubation was quenched at the indicated time with the following stop solution: 100 mM HCl and 0.16 M acetic acid. […] All peptide stock solutions were prepared in ddH2O. IC50 values were estimated from Dixon plots (1/v0 vs. [inhibitor]) as an indication of the inhibition potency.

HDAC8 = target: T2, HDAC8 (Homo sapiens, UniProt Q9BY41); assay: HPLC-based assay with purified HDAC8 (de(thio)acetylation of peptides); assay type: biochemical; set-up: key to HDAC8 (sensitive / resistant to HDAC8): +: Sensitive to HDAC8; —: Resistant to HDAC8; conditions: for formation of de(thio)acetylated peptide product by HDAC8: 0.3 mM peptide, 1.5 μM HDAC8, 2 hours at room temperature; for HDAC8 (sensitive / resistant to HDAC8): enzymatic dethioacetylation by HDAC8
T2 construct: purchased
T2 sequence (Q9BY41 1-377): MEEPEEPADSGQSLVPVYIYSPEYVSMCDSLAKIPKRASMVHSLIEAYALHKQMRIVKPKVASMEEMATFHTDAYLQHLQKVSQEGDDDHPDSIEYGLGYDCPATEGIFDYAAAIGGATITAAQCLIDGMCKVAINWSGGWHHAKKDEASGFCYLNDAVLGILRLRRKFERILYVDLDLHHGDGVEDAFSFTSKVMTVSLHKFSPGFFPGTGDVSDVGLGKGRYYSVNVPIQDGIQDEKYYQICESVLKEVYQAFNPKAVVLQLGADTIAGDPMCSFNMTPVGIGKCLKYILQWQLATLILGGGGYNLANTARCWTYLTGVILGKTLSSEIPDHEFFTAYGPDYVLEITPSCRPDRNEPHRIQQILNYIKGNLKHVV
Procedure: To test the foregoing premise, peptides 1b, 2, and 3a were allowed to be incubated for 2 hours at room temperature in the HDAC8 assay buffer in a HPLC-based HDAC8 assay. […] FIG. 5 provides representative HPLC chromatograms from HDAC8 assays with peptides 1b, 2, and 3a. All assays were performed in duplicate and essentially the same HPLC chromatograms were obtained for the duplicates. The small peak with tR˜27 minutes in the second chromatogram was from a minor impurity in the purified peptide 2 sample, rather than the dethioacetylated product. The lack of detectable dethioacetylation of peptide 3a was apparent from the absence of a peak with tR˜34 minutes, shown for peptide 3c in the third chromatogram.
Assay with purified HDAC8. The purified HDAC8 could be obtained from a commercial source for use with a HPLC-based HDAC8 assay. In brief, a HDAC8 assay solution had the following components: 25 mM Tris.HCl (pH 8.0), 137 mM NaCl, 2.7 mM KCl, 1 mM MgCl2, 1 mg/mL BSA (SIGMA Cat. #A3803 with reduced fatty acid content), 0.3 mM peptide 1b, 2, or 3a, and 1.5 μM HDAC8. […] An enzymatic reaction was initiated by the addition of HDAC8 at room temperature and was allowed to be incubated at room temperature for 2 hours before being quenched with the following stop solution: 1.0 M HCl and 0.16 M acetic acid. The quenched assay solutions were directly injected into a reversed-phase HPLC C18 column (100 Å, 0.46×25 cm), eluting with the following gradients of ddH2O containing 0.05% (v/v) trifluoroacetic acid (mobile phase A) and acetonitrile containing 0.05% (v/v) trifluoroacetic acid (mobile phase B): linear increase from 0% B to 35% B (for the assay with peptide 2 or 1b) or 40% B (for the assay with peptide 3a or […]) from 0-40 minutes (1 mL/min), and UV monitoring at 214 nm. […] The enzymatically formed peptide 1c was confirmed by its comigration with the chemically synthesized authentic sample and by MALDI-TOF mass spectrometric analysis, and was quantified by HPLC peak integration and comparison with that of synthetic authentic sample.

Row | SMILES | inhibition weaker for SIRT1 as compared to SIRT2 (SIRT1; SIRT1 vs SIRT2) | formation of de(thio)acetylated peptide product by HDAC8 (HDAC8) | HDAC8 (sensitive / resistant to HDAC8) (HDAC8) | stronger inhibition with respect to SIRT1 than SIRT2 and SIRT3 (SIRT1; SIRT1 vs SIRT2 and SIRT3)
1 | CC[C@H](C)[C@H](NC(=O)[C@@H](NC(=O)[C@H](CCCCNC(C)=S)NC(=O)[C@H](CC(=O)O)NC(=O)[C@H](CO)NC(=O)[C@@H]1CCCN1C(=O)[C@@H](N)CCSC)[C@@H](C)O)C(=O)NCC(=O)NCC(=O)O [Peptide 2] (H-MPSD[Lys(Thioacetyl)]TIGG-OH) | about 10 fold | no detectable formation | —^d | 
2 | CC[C@H](C)[C@H](NC(=O)[C@@H](NC(=O)[C@H](CCCCN)NC(=O)[C@H](CCCNC(=N)N)NC(=O)[C@H](CC(C)C)NC(=O)[C@H](CC(C)C)NC(=O)[C@H](CCCNC(=N)N)NC(=O)[C@H](CCCNC(=N)N)NC(=O)[C@H](CCSC)NC(=O)[C@@H](NC(=O)[C@H](CCCCNC(C)=S)NC(=O)CNC(=O)[C@H](CO)NC(=O)[C@H](CCCNC(=N)N)NC(=O)[C@@H](NC(=O)[C@H](CCCCN)NC(=O)[C@@H]1CCCN1C(=O)[C@H](CC(C)C)NC(=O)[C@H](CCCNC(=N)N)NC(=O)[C@@H](N)CCCCN)[C@@H](C)O)C(C)C)[C@@H](C)CC)C(=O)O [Peptide 3a] (H-KRLPKTRSG[Lys(Thioacetyl)]VMRRLLRKII-OH) |  | no detectable formation | — | about 5 fold
